Experiment [1] deals with T1, PDGF bb (Homo sapiens, UniProt P01127).
T1 construct: purchased R&D Systems BT220-010/CF
In words: SPR. The conditions noted are these: Table S16; SPR against PDGF bb; averaged from at least three independent runs; estimated KD values due to possible non-specific binding. How it is done:
(§1) SPR measurements were carried out on a Biacore S200 instrument (GE Healthcare) with PBS-T (PBS with 0.05% Tween 20, pH 7.4) as the assay buffer as described previously. For kinetic measurements, biotinylated protein was captured on three separate sensor channels of a Series S SA Sensor chip (GE Healthcare). The chip was then blocked with 0.1 mg/mL free biotin. A concentration series of the DCP were injected to the chip. Data were double-referenced by subtracting the signal from a control sensor channel (coated with biotin only) and the signal from a buffer injection. Binding data were fitted using the manufacturer’s software (1:1 or two state binding model for single-cycle kinetics or steady-state model for multi-cycle kinetics).

In experiment [2] the target is Ly6E-rat IgG Fc (UniProt P20761+Q16553). In words: SPR. Also noted: species or system human. The conditions noted are these: Table S17, first KD value, at least three independent runs, estimated values due to possible non-specific binding, read-out: KD against rat Fc-Ly6E. How it is done:
as §1

The target of experiment [3] is T2, human IgG Fc (Homo sapiens, UniProt P01857).
T2 construct: Biotin-SP-ChromPure Human IgG, Fc fragment; purchased Jackson Immunoresearch Labs Inc. 009060008
As to the kind of experiment: SPR. Type of experiment: binding.

In experiment [4] the target is T3, human VEGF-A (Homo sapiens, UniProt P15692).
T3 construct: biotin-VEGF-A (8–109, Genentech)
T3 sequence (P15692 214-315): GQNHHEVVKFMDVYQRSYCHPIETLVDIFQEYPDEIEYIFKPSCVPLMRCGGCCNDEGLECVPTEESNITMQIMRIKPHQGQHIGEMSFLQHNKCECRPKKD
As to the kind of experiment: SPR. Format: binding.

The target of experiment [5] is T2, human IgG Fc. As to the kind of experiment: Phage competition ELISA (synthetic DCP vs its own phage). Format: binding. The conditions noted are these: Table S12; synthetic DCP competing with its own phage for biotinylated human IgG Fc on neutravidin plate; absorbance 450 nm; averaged from at least three independent runs. For orientation: In an ELISA, binding on a coated surface is turned into a signal by an enzyme label.

Experiment [6] concerns the target T4, human serum albumin (Homo sapiens, UniProt P02768).
T4 construct: purchased Rockland Immunochemicals, Inc. 009–0633
In words: Phage competition ELISA with phage displaying Hs-CHR-3. Type of experiment: binding. The conditions noted are these: Fig 4H. Here is the method:
To analyze the competitive binding to the target protein for the synthetic DCP and its phage counterpart displaying the same DCP, 384-well plates were coated with 2 μg/mL of neutravidin in PBS overnight at 4°C. The plates were blocked with PBS containing 0.5% BSA and incubated with biotinylated human IgG Fc or serum albumin for 20 min at room temperature. Serial diluted synthetic DCP was pre-incubated with phage for 30 min at room temperature then the mixture was added to the 384 well plates for 30 min at room temperature. The plates were washed and incubate with anti-M13 antibody (1:10,000, HRP conjugated, Creative Diagnostics, cat# CAB-655M) for 30 min at room temperature, followed by washing, development and quenching (1 M H3PO4). The absorbance at 450 nm was recorded to calculate the IC50 values.
To further map the binding epitopes of the Ig-DCPs on human IgG Fc, we developed a protein A-human IgG Fc competition ELISA. […] The findings imply Hs-CHR-1 and -3 bind to a similar epitope on human serum albumin, which partially overlap with the SA21 binding site (Fig 4I).

Read-outs that look alike come from different tables or passages of the source. Where a SMILES comes first, the peptide text is derived from it. Bridges are numbered along the chain shown (N, C = ends). Bounds are passed on as bounds.

Ly6E-rat IgG Fc, sequence (Q16553+P20761 fused): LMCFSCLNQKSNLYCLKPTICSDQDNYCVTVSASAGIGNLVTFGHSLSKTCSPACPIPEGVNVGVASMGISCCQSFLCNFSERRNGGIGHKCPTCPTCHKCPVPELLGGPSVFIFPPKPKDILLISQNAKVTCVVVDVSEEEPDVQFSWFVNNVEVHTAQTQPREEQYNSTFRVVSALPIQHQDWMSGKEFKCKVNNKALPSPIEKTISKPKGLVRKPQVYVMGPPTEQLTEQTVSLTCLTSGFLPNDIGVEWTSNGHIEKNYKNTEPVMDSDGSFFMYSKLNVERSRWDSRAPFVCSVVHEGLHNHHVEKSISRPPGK
T1 sequence (P01127 82-190 limits assumed): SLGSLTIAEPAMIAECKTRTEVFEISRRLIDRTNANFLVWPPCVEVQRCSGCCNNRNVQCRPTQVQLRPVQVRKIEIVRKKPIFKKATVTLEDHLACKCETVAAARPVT
T4 sequence (P02768 25-609): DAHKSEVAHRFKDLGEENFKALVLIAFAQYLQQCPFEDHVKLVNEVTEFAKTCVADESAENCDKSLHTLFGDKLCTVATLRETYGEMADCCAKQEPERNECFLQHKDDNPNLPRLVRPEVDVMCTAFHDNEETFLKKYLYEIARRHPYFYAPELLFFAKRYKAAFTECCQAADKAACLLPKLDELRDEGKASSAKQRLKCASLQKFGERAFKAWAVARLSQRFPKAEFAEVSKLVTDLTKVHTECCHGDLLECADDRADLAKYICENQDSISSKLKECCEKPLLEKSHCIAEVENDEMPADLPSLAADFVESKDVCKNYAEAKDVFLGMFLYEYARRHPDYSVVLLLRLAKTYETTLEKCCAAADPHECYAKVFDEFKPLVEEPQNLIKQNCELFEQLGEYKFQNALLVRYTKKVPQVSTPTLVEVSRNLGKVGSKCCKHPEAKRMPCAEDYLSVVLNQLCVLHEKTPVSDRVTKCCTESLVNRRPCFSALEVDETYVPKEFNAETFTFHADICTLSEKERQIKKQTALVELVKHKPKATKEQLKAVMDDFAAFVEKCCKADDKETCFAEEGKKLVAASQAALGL

As usually defined, the Kd is the constant that tells how readily two partners part at equilibrium. Regarding `CC[C@H](C)[C@@H]1NC(=O)[C@H](Cc2ccccc2)NC(=O)[C@@H]2CCCN2C(=O)[C@H](CC(N)=O)NC(=O)[C@H](CC(=O)O)NC(=O)[C@H](CC(=O)O)NC(=O)[C@H](Cc2ccccc2)NC(=O)[C@@H](NC(=O)CN)CSSC[C@@H]2NC(=O)CNC(=O)[C@H](C)NC(=O)[C@H](CC(C)C)NC(=O)[C@@H]3CSSC[C@@H](C(=O)NCC(=O)O)NC(=O)[C@H](Cc4c[nH]c5ccccc45)NC(=O)[C@H]([C@@H](C)O)NC(=O)[C@H](CC(=O)O)NC(=O)[C@H](Cc4ccc(O)cc4)NC(=O)[C@H](Cc4c[nH]c5ccccc45)NC(=O)[C@H](CSSC[C@H](NC(=O)[C@H](C)NC1=O)C(=O)N[C@@H](CCCCN)C(=O)N[C@@H](CCC(N)=O)C(=O)N[C@@H](CC(=O)O)C(=O)N[C@@H](CO)C(=O)N[C@@H](CC(=O)O)C(=O)N3)NC(=O)[C@H](C(C)C)NC2=O` [P-EET-6] (H-GCFDDNPFIACKQDSDCLAGCVCWYDTWCG-OH; disulfide 2-21, 11-23, 17-29), the Kd in experiment [1] is greater than 6700 nM.

With `CC[C@H](C)[C@@H]1NC(=O)[C@H](C)NC(=O)[C@@H](NC(=O)CN)CSSC[C@@H]2NC(=O)CNC(=O)[C@H](C)NC(=O)[C@H](CC(C)C)NC(=O)[C@@H]3CSSC[C@@H](C(=O)NCC(=O)O)NC(=O)[C@H](Cc4ccccc4)NC(=O)CNC(=O)[C@H](CC(N)=O)NC(=O)[C@@H]4CCCN4C(=O)CNC(=O)[C@H](CSSC[C@H](NC(=O)[C@H](CCC(N)=O)NC(=O)[C@H](Cc4ccccc4)NC(=O)[C@H](CCSC)NC(=O)[C@H](Cc4c[nH]c5ccccc45)NC(=O)CNC(=O)[C@H](CCSC)NC(=O)[C@H](Cc4c[nH]cn4)NC(=O)[C@H](Cc4ccc(O)cc4)NC1=O)C(=O)N[C@@H](CCCCN)C(=O)N[C@@H](CCC(N)=O)C(=O)N[C@@H](CC(=O)O)C(=O)N[C@@H](CO)C(=O)N[C@@H](CC(=O)O)C(=O)N3)NC(=O)[C@H](C(C)C)NC2=O` [L-EET-7], the Kd in experiment [2] was 22 nM.

Regarding `CC[C@H](C)[C@@H]1NC(=O)[C@H](C)NC(=O)[C@H](CO)NC(=O)[C@@H]2CSSC[C@@H]3NC(=O)[C@H](Cc4ccc(O)cc4)NC(=O)CNC(=O)[C@H](Cc4ccccc4)NC(=O)[C@H](CCC(N)=O)NC(=O)[C@H](CO)NC(=O)[C@H](CSSC[C@H](NC(=O)[C@H](CCC(=O)O)NC(=O)CNC(=O)[C@@H](N)C(C)C)C(=O)N[C@@H](C(C)C)C(=O)N[C@@H](CCCNC(=N)N)C(=O)NCC(=O)N[C@@H](CCCNC(=N)N)C(=O)N2)NC(=O)[C@H](CSSC[C@@H](C(=O)NCC(=O)O)NC(=O)[C@H](Cc2ccc(O)cc2)NC(=O)[C@H](CCCCN)NC(=O)[C@@H]2CCCN2C(=O)CNC(=O)[C@H](CCCCN)NC(=O)CNC3=O)NC(=O)[C@H](CO)NC1=O` [Ig-AMP-2] (H-VGECVRGRCSAISCCSQFGYCGKGPKYCG-OH; disulfide 4-15, 9-21, 14-28), the KD result in experiment [3] (Table S12, SPR Biacore S200, PBS-T pH 7.4, biotinylated protein on SA chip, averaged from at least three independent runs, N.A. = no detectable binding, * estimated value due to possible non-specific binding) is listed as “aggregation”.

`CSCC[C@@H]1NC(=O)[C@H](CC(C)C)NC(=O)[C@H](CCCNC(=N)N)NC(=O)[C@H](CO)NC(=O)[C@@H]2CSSC[C@@H]3NC(=O)[C@H](CO)NC(=O)CNC(=O)[C@H]([C@@H](C)O)NC(=O)[C@H](CSSC[C@H](N)C(=O)N[C@@H](CCCCN)C(=O)NCC(=O)N[C@@H](CCCCN)C(=O)NCC(=O)N[C@@H](C)C(=O)N[C@@H](CCCCN)C(=O)N2)NC(=O)[C@H](CSSC[C@@H](C(=O)O)NC(=O)[C@H](CCCCN)NC(=O)CNC(=O)[C@H](CO)NC(=O)[C@H](CCCNC(=N)N)NC3=O)NC(=O)[C@H](CC(=O)O)NC(=O)[C@H](Cc2ccc(O)cc2)NC1=O` [W T CON, reference compound] had a Kd in experiment [3] greater than 20000 nM.

Regarding `CC[C@H](C)[C@@H]1NC(=O)[C@H]([C@@H](C)O)NC(=O)[C@H](Cc2ccccc2)NC(=O)[C@@H]2CCCN2C(=O)[C@H](Cc2ccccc2)NC(=O)[C@H](Cc2c[nH]c3ccccc23)NC(=O)[C@@H]2CCCN2C(=O)[C@H]([C@@H](C)O)NC(=O)[C@H](CCSC)NC(=O)[C@@H](NC(=O)CN)CSSC[C@@H]2NC(=O)CNC(=O)[C@H](C)NC(=O)[C@H](CC(C)C)NC(=O)[C@@H]3CSSC[C@@H](C(=O)NCC(=O)O)NC(=O)[C@H](Cc4ccccc4)NC(=O)CNC(=O)[C@H](CC(N)=O)NC(=O)[C@@H]4CCCN4C(=O)CNC(=O)[C@H](CSSC[C@H](NC(=O)[C@H](CC(N)=O)NC1=O)C(=O)N[C@@H](CCCCN)C(=O)N[C@@H](CCC(N)=O)C(=O)N[C@@H](CC(=O)O)C(=O)N[C@@H](CO)C(=O)N[C@@H](CC(=O)O)C(=O)N3)NC(=O)[C@H](C(C)C)NC2=O` [V-EET-3] (H-GCMTPWFPFTINCKQDSDCLAGCVCGPNGFCG-OH; disulfide 2-23, 13-25, 19-31), the dissociation constant (Kd) in experiment [4] (Table S16, SPR against VEGF-A, averaged from at least three independent runs, estimated KD values due to possible non-specific binding, read-out: KD) was greater than 1500 nM.

In experiment [4], `CC[C@H](C)[C@@H]1NC(=O)[C@H](C(C)C)NC(=O)[C@H](Cc2c[nH]cn2)NC(=O)[C@H](Cc2ccc(O)cc2)NC(=O)[C@H](CCC(=O)O)NC(=O)[C@H](CCC(N)=O)NC(=O)[C@H](CC(=O)O)NC(=O)[C@H]([C@@H](C)O)NC(=O)[C@H](C)NC(=O)[C@H](Cc2c[nH]c3ccccc23)NC(=O)[C@H](C(C)C)NC(=O)[C@H](C)NC(=O)[C@H](CO)NC(=O)[C@@H]2CSSC[C@@H]3NC(=O)[C@H](CO)NC(=O)CNC(=O)[C@H]([C@@H](C)O)NC(=O)[C@H](CSSC[C@H](N)C(=O)N[C@@H](CCCCN)C(=O)NCC(=O)N[C@@H](CCCCN)C(=O)NCC(=O)N[C@@H](C)C(=O)N[C@@H](CCCCN)C(=O)N2)NC(=O)[C@H](CSSC[C@@H](C(=O)O)NC(=O)[C@H](CCCCN)NC(=O)CNC(=O)[C@H](CO)NC(=O)[C@H](CCCNC(=N)N)NC3=O)NC1=O` [V-CON-1] had a Kd greater than 4600 nM.

As usually defined, the IC50 is the concentration that gives 50% inhibition. Low values mean greater potency, high ones weaker potency. As to `CSCC[C@@H]1NC(=O)[C@H](Cc2ccc(O)cc2)NC(=O)[C@H](Cc2c[nH]c3ccccc23)NC(=O)[C@H](Cc2ccc(O)cc2)NC(=O)CNC(=O)[C@@H](NC(=O)CN)CSSC[C@@H]2NC(=O)CNC(=O)[C@H](C)NC(=O)[C@H](CC(C)C)NC(=O)[C@@H]3CSSC[C@@H](C(=O)NCC(=O)O)NC(=O)[C@H](CCC(=O)O)NC(=O)[C@@H]4CCCN4C(=O)[C@H](CCCCN)NC(=O)[C@@H]4CCCN4C(=O)[C@H](CCCNC(=N)N)NC(=O)[C@H](CSSC[C@H](NC(=O)[C@H](Cc4ccccc4)NC(=O)[C@H](Cc4c[nH]c5ccccc45)NC(=O)[C@H](CCC(N)=O)NC1=O)C(=O)N[C@@H](CCCCN)C(=O)N[C@@H](CCC(N)=O)C(=O)N[C@@H](CC(=O)O)C(=O)N[C@@H](CO)C(=O)N[C@@H](CC(=O)O)C(=O)N3)NC(=O)[C@H](C(C)C)NC2=O` [Ig-EET-4], in experiment [3] (Table S12, SPR Biacore S200, PBS-T pH 7.4, biotinylated protein on SA chip, averaged from at least three independent runs, N.A. = no detectable binding, * estimated value due to possible non-specific binding, read-out: KD), the Kd was 948 nM. Further, the IC50 in experiment [5] turned out to be 823 nM.

In the case of `CC[C@H](C)[C@H](NC(=O)[C@H](CC(C)C)NC(=O)[C@@H](N)CCCNC(=N)N)C(=O)N[C@@H](CCC(=O)O)C(=O)N[C@@H](CC(=O)O)C(=O)N[C@H](C(=O)N[C@H]1CSSC[C@@H](C(=O)N[C@@H](CC(C)C)C(=O)N[C@@H](Cc2c[nH]c3ccccc23)C(=O)N[C@@H](CCC(=O)O)C(=O)N[C@@H](CC(=O)O)C(=O)N[C@@H](CC(=O)O)C(=O)O)NC(=O)CNC(=O)[C@H](Cc2c[nH]c3ccccc23)NC(=O)[C@H](CCCNC(=N)N)NC(=O)[C@@H]2CCCN2C(=O)[C@H](CC(C)C)NC1=O)[C@@H](C)CC` [SA21] (H-RLIEDICLPRWGCLWEDD-OH; disulfide 7-13 (inferred); N-terminus and C-terminus assumed), in experiment [6], the “inhibition of interaction between biotinylated human serum albumin and phage displaying Hs-CHR-3” value is “partially disrupted”.

These data come from article PMC10977726 (PLOS ONE, 2024).
